Reference: patent EP2181589A1, “Neurotoxic sterol glycosides” (Shaw, Christopher Ariel, priority 2008, dated 2010)
“Also recorded” adds a separate entry of the source.

Experiments:
[1] = system: CD-1 mice; assay: Leg extension reflex test; format: in vivo
Protocol: (§1) Five-month old male CD-1 mice (30.1-35.7 g, 7.5 cm - 8.8 cm) were purchased from Charles River (Wilmington, MA). Adult mice were chosen to mimic the mean age of onset of ALS-PDC (Kurland, 1988; Kurland et al., 1994). Thirty mice for the SG study were randomly divided into 2 groups (14 control and 16 experimental animals). All animals were housed singly in a virus-free barrier facility in a room maintained at 22°C under a 12 hour light/dark cycle. The mice were provided ad libitum access to food and water.
The synthetic SG was mixed with finely ground Purina Chow mouse pellets (Mouse Diet™, Purina) to create the experimental pellets with a SG content of 1000 µg per pellet. Dry materials were blended with a sterile silicon spatula. For every 5 g of standard feed, 2.5 mL of doubly-distilled water (dd)H2O was added and the dough was kneaded and round up into pellets. A single sterol glucoside containing pellet was placed in the feeding tray each morning before the addition of regular mouse chow (ad libitum). […] SG feeding was conducted daily for 15 weeks and mice were behaviorally monitored until sacrifice at 35 weeks (time point 1) or 52 weeks (time point 2).
Leg extension reflex test: The leg extension reflex test was used as a measure of motor neuron dysfunction (Barneoud and Curet, 1999). […] The leg extension reflex was measured three times per week in each animal. […]

[2] = system: CD-1 mice; assay: Gait analysis (Digigait); format: in vivo; conditions: SG-fed vs control
Protocol: as §1
(§2) The synthetic SG was mixed with finely ground Purina Chow mouse pellets (Mouse Diet™, Purina) to create the experimental pellets with a SG content of 1000 µg per pellet. Dry materials were blended with a sterile silicon spatula. For every 5 g of standard feed, 2.5 mL of doubly-distilled water (dd)H2O was added and the dough was kneaded and round up into pellets. A single sterol glucoside containing pellet was placed in the feeding tray each morning before the addition of regular mouse chow (ad libitum). All experimental pellets were entirely consumed by the mice each day. Control mice were fed standard mouse chow pellets of identical weight with no additives. SG feeding was conducted daily for 15 weeks and mice were behaviorally monitored until sacrifice at 35 weeks (time point 1) or 52 weeks (time point 2).
Gait analysis: In order to examine spatial and temporal indices of front and hind limb stepping patterns during forward locomotion, mice were required to run on a colorless (PVC and polycarbonate), straight, level, walled motorized belt (Digigait™, treadmill motor: DC, HP; torque 45 1b-in, Mouse Specifics, Inc., Boston, MA, USA) set at 30 rpm with a no-flicker light source (90-250 VAC; 25 kHZ, Mouse Specifics, Inc., Boston, MA, USA) and camera mounted ventrally (relative to the animal) to facilitate continuous ventral plane videography (up to 150 frames per second) of activity. Gait indices were analyzed with the complementary digital imaging software (Digigait™, Mouse Specifics, Inc., Boston, MA, USA) as per manufacturer's instructions. Briefly, the software converts "paw prints" into a digital signal and generates a temporal record of paw placement and breaks down the digital file into three main parameters: stride duration, swing duration, and stance duration. The stance duration is the period during which the paw of a limb is in contact with the belt surface. The software further subdivides the stance duration into two components: braking duration (the increase in paw contact area over a discrete time interval) and propulsion duration (the decrease in paw contact area over a discrete time interval). The swing duration is the period of time that a paw is not in contact with the belt surface. In addition to these factors, over a dozen additional characteristics, including stance factor, step-sequence pattern, propulsion, and cadence are generated to provide a spreadsheet format report of twenty-five gait indices.

[3] = system: Phosphorylated tau aggregates; assay: Tau immunohistochemistry; format: in vivo, CD-1 mice; set-up: key to Phosphorylated tau aggregates: - = not present; + = present; conditions: for Phosphorylated tau aggregates: SG-fed
Protocol: as §2
Tissue-mounted slides were processed for fluorescence microscopy as follows: Sections were rinsed in coplin jars for 45 minutes at room temperature (RT) in three changes of PBS. Sections were then incubated at RT for 30 minutes in a blocking permeabilization solution made of 5% normal goat serum (NGS), 5% normal rabbit serum (NRS) or 5% BlokHen II (Aves Labs, Inc., Tigard, OR), 0.05% Triton X-100 and PBS. Subsequently, the blocking solution was tipped off and the slides were rinsed in PBS for 2 minutes. […]

In the case of CCC(C=CC(C)C1CCC2C3CC=C4CC(OC5OC(CO)C(O)C(O)C5O)CCC4(C)C3CCC12C)C(C)C (centres unmarked) [SG], the “Leg extension reflex test performance (score)” value ([1]; SG-fed animals, soon after 35 weeks / during the study) is reported as “steady decline in performance; also recorded: decreased”, the Leg extension ([1]; SG-fed vs control, time-point 2, 52 wk) is reported as “Leg extension* (*p<0.05)” and the Forelimb braking ([2]; time-point 1, 35 wk) is reported as “Forelimb braking (ns)”. The Forelimb propulsion ([2]; time-point 1, 35 wk) was “Forelimb propulsion (ns)”, the Forelimb stance width ([2]; time-point 1, 35 wk) was “Forelimb stance width (ns)” and the Forelimb stride length ([2]; time-point 1, 35 wk) was “Forelimb stride length (ns)”. The Hind limb braking ([2]; time-point 1, 35 wk) was “Hind limb braking (ns)”, the Hind limb propulsion ([2]; time-point 1, 35 wk) was “Hind limb propulsion (ns)” and the “Hind limb stance width” value ([2]; time-point 1, 35 wk) was “Hind limb stance width (ns)”. The “Hind limb stride frequency” value ([2]; time-point 1, 35 wk) was “Hind limb stride frequency (ns)”, the “Hind limb stride length” value ([2]; time-point 1, 35 wk) was “Hind limb stride length (ns)” and the Forelimb braking ([2]; time-point 2, 52 wk) was “Forelimb braking* (*p<0.05)”. The Forelimb propulsion ([2]; time-point 2, 52 wk) was “Forelimb propulsion* (*p<0.05)”, the Hind limb braking ([2]; time-point 2, 52 wk) was “Hind limb braking* (*p<0.05)” and the Hind limb propulsion ([2]; time-point 2, 52 wk) was “Hind limb propulsion* (*p<0.05)”. The “Hind limb stride frequency” value ([2]; time-point 2, 52 wk) was “Hind limb stride frequency* (*p<0.05)”, the “Phosphorylated tau aggregates, animals affected” value ([3]; SG-fed group, time-point 2, 52 wk) was 2/8 and the “Phosphorylated Tau aggregates” value ([3]; SG-fed mice, none in non-treated mice) was “induced accumulation of phosphorylated tau; also recorded: observed”. The Phosphorylated tau aggregates ([3]; time-point 1, 35 wk) was “-” and the Phosphorylated tau aggregates ([3]; time-point 2, 52 wk) was “+”.
